Test results: publication PMC6403019, “Nanoformulated Antiretroviral Therapy Attenuates Brain Metabolic Oxidative Stress” (Molecular Neurobiology, 2018)

Key:
[1] = Plasma concentration after intramuscular injection of free DTG; format: in vivo, mice; conditions: single free DTG injection, 45 mg/kg
brain metabolome = assay: Brain region-specific global metabolomics (LC-MS) after DTG injections; format: in vivo, mice (Balb/cJ); conditions: five brain regions, Fig. 4
Protocol: Brain tissue subregions were extracted as previously described. Briefly, 0.6 mL of cold methanol:H2O (4:1, v/v) were added per 10 mg tissue (solvent volume was adjusted accordingly to tissue weight). Homogenization was performed with glass beads in a homogenizer and sonicated in an ice bath for 10 min. The mixtures were then transferred to 1.5-mL Eppendorf vials and rinsed with additional 200 μL extraction solvent. To precipitate proteins, the samples were incubated for 1 h at − 20 °C, followed by a 15-min centrifugation at 13,000 rpm at 4 °C. The resulting supernatant was evaporated to dryness in a vacuum concentrator. The dry extracts were then reconstituted in acetonitrile:H2O (1:1, v/v), normalized by tissue weight, sonicated for 10 min, and centrifuged for 15 min at 13000 rpm and 4 °C to remove insoluble debris. The supernatants were transferred to HPLC vials and stored at − 80 °C prior to LC-MS analysis.
The extracts were analyzed on a 6550 iFunnel QTOF mass spectrometer coupled with a 1290 UPLC system (Agilent Technologies, Santa Clara, CA). For global metabolomics, a Luna Aminopropyl, 3 μm, 150 mm × 2.0 mm I.D. HILIC column (Phenomenex, Torrance, CA) was used. […]
LC-MS data were converted to mzXML files using Masshunter Acquisition Software (Agilent Masshunter 6.0B). […] The relative quantification of metabolite features was based on extracted ion chromatogram areas. […]

[2] = test system: mouse embryonic neuron cells; assay: ROS formation (DCFDA) in neurons; format: cell-based; conditions: administered at 100 and 500 μM
Protocol: (§1) ROS were measured in neuron and MDM cells with the probe DCFDA (dichlorofluorescin diacetate, abcam, Cambridge, MA). Cells were seeded on black, clear-bottomed 96-well plates. After cells were pre-cultured with different treatments, the media were removed and the cells were washed with 1× buffer (supplied with the kit). Cells were incubated for 45 min in 1× buffer containing 25 μM DCFDA at 37 °C. DCF production was measured by fluorescence spectroscopy with excitation wavelength at 485 nm and emission wavelength at 535 nm. In this study, the cells were treated with increasing concentrations of free DTG, nano-DTG, and various vehicle, positive, and negative controls to compare ROS generation and lactate dehydrogenase (LDH)-based cytotoxicity generated by such treatments. […] TBHP (tert-butyl hydroperoxide; 10 μM) and PBS were used as the positive and negative controls, respectively. The vehicle control for nanoformulated DTG was composed of poloxamer micelles without the drug. […] Specifically, cells (both MDM and neurons) were treated for 2 h with various vehicle or drug concentrations. Then, cells were washed and new media was added, and after 24-h culture, cells were challenged with TBHP for 2 h, followed by fluorescence-based ROS measurements.

human MDM [3] = assay: ROS formation (DCFDA) in MDM; format: cell-based; conditions: 100 μM
Protocol: as §1

[4] = test system: mouse embryonic neuron cells; assay: ROS levels after TBHP challenge in neurons; format: cell-based; conditions: 100 μM drug, then 10 μM TBHP; normalized with TBHP-positive control
Protocol: as §1

human MDM [5] = assay: ROS levels after TBHP challenge in MDM; format: cell-based; conditions: 10 to 100 μM drug, then 10 μM TBHP
Protocol: as §1

[6] = test system: mouse embryonic neuron cells; assay: Cellular uptake of DTG in neurons (LC-MS/MS MRM); format: in vitro ADME; conditions: treated with 100 μM
Source text: Cycle time was 150 ms for each transition.

neuron and MDM cells = assay: LDH-based cytotoxicity; format: cell-based; conditions: 500 μM in the dosing medium
[7] = design: method as in PMID 21716073, PMID 23824675; conditions: HIV-infected adults, ten doses of monotherapy with 50 mg once daily DTG tablets; cited from earlier work

C[C@@H]1CCO[C@H]2Cn3cc(C(=O)NCc4ccc(F)cc4F)c(=O)c(O)c3C(=O)N12 [free DTG, dolutegravir]
plasma concentration [1]: up to 11.29 μg/mL | changes of oxidative stress metabolites (ascorbic acid, threonate, GSH, GSSG) vs controls (brain metabolome): statistically significant (p value < 0.05) with the exception of ascorbic acid levels observed in the H | ROS fold change vs vehicle control, neurons [2]: up to 1.5 times of control | ROS fold change vs vehicle control, MDM (human MDM [3]): 0.8 times | ROS fold change after TBHP challenge, neurons [4]: 4 | ROS response to TBHP challenge, MDM (human MDM [5]): induced ROS formation in a dose-response at higher concentrations (60 to 100 μM) | DTG concentration in neurons [6]: 168 ng/10^6 cells | cytotoxicity (LDH-based) (neuron and MDM cells): did not show significant cytotoxicity | steady-state plasma concentration (Cmax) [7]: 3.34 µg/mL
